From PubChem BioAssay (NCI)
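GI50 marks 50% less growth. The concentration for full growth arrest is given as TGI.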

Tests used:
Assay in all cases: inhibition of tumour cell growth, NCI panel, 384-well format
HCT-116 colon = system: HCT-116 colon
CAKI-1 renal = system: CAKI-1 renal
T-47D breast = system: T-47D breast
SK-MEL-28 melanoma = system: SK-MEL-28 melanoma
NCI-H522 lung = system: NCI-H522 lung
SF-268 CNS = system: SF-268 CNS
EKVX NSCLC = system: EKVX NSCLC
RXF 393 renal = system: RXF 393 renal
COLO 205 colon = system: COLO 205 colon
KM12 colon = system: KM12 colon
OVCAR-5 ovarian = system: OVCAR-5 ovarian
SNB-75 CNS = system: SNB-75 CNS
HL-60(TB) leukemia = system: HL-60(TB) leukemia
OVCAR-4 ovarian = system: OVCAR-4 ovarian
NCI/ADR-RES ovarian = system: NCI/ADR-RES ovarian
ACHN renal = system: ACHN renal
SW-620 colon = system: SW-620 colon
HCC-2998 colon = system: HCC-2998 colon
NCI-H226 lung = system: NCI-H226 lung
MDA-MB-435 melanoma = system: MDA-MB-435 melanoma
OVCAR-8 ovarian = system: OVCAR-8 ovarian
OVCAR-3 ovarian = system: OVCAR-3 ovarian
HS 578T breast = system: HS 578T breast
SK-OV-3 ovarian = system: SK-OV-3 ovarian
RPMI-8226 leukemia = system: RPMI-8226 leukemia
CCRF-CEM leukemia = system: CCRF-CEM leukemia
NCI-H23 lung = system: NCI-H23 lung
HCT-15 colon = system: HCT-15 colon
MDA-MB-468 breast = system: MDA-MB-468 breast

COc1cccc2cc(-c3nc(C4CCC(C(=O)O)CC4)n4ncnc(N)c34)[nH]c12 (stereo not drawn)
GI50 (HCT-116 colon): 4130 nM
TGI (HCT-116 colon): 62400 nM
GI50 (CAKI-1 renal): 1590 nM
TGI (CAKI-1 renal): 8100 nM
GI50 (T-47D breast): 158 nM
TGI (T-47D breast): 725 nM
GI50 (SK-MEL-28 melanoma): 453 nM
TGI (SK-MEL-28 melanoma): 7410 nM
GI50 (NCI-H522 lung): 400 nM
TGI (NCI-H522 lung): > 100000 nM
GI50 (SF-268 CNS): 2300 nM
TGI (SF-268 CNS): 31300 nM
GI50 (EKVX NSCLC): 1100 nM
TGI (EKVX NSCLC): 11600 nM
GI50 (RXF 393 renal): 1490 nM
TGI (RXF 393 renal): 6540 nM
GI50 (COLO 205 colon): 1180 nM
TGI (COLO 205 colon): 26600 nM
GI50 (KM12 colon): 964 nM
TGI (KM12 colon): > 100000 nM
GI50 (OVCAR-5 ovarian): 3090 nM
TGI (OVCAR-5 ovarian): 67500 nM
GI50 (SNB-75 CNS): 382 nM
TGI (SNB-75 CNS): 2810 nM
GI50 (HL-60(TB) leukemia): 11300 nM
TGI (HL-60(TB) leukemia): 23800 nM
GI50 (OVCAR-4 ovarian): 1250 nM
TGI (OVCAR-4 ovarian): 5750 nM
GI50 (NCI/ADR-RES ovarian): 2450 nM
TGI (NCI/ADR-RES ovarian): 17000 nM
GI50 (ACHN renal): 1180 nM
TGI (ACHN renal): 13000 nM
GI50 (SW-620 colon): 4220 nM
TGI (SW-620 colon): > 100000 nM
GI50 (HCC-2998 colon): 5760 nM
TGI (HCC-2998 colon): 44100 nM
GI50 (NCI-H226 lung): 1150 nM
TGI (NCI-H226 lung): 6680 nM
GI50 (MDA-MB-435 melanoma): 2390 nM
TGI (MDA-MB-435 melanoma): 11400 nM
GI50 (OVCAR-8 ovarian): 2310 nM
TGI (OVCAR-8 ovarian): 49500 nM
GI50 (OVCAR-3 ovarian): 442 nM
TGI (OVCAR-3 ovarian): 11400 nM
GI50 (HS 578T breast): 302 nM
TGI (HS 578T breast): 1590 nM
GI50 (SK-OV-3 ovarian): 1440 nM
TGI (SK-OV-3 ovarian): 26800 nM
GI50 (RPMI-8226 leukemia): 161 nM
TGI (RPMI-8226 leukemia): 542 nM
GI50 (CCRF-CEM leukemia): 738 nM
TGI (CCRF-CEM leukemia): 10500 nM
GI50 (NCI-H23 lung): 2300 nM
TGI (NCI-H23 lung): 15000 nM
GI50 (HCT-15 colon): 1360 nM
TGI (HCT-15 colon): 57000 nM
GI50 (MDA-MB-468 breast): 210 nM
TGI (MDA-MB-468 breast): 1520 nM
